What was measured:
[1] = tested on: cholesterin-fed rabbit atherosclerosis model; assay: cholesterin-fed rabbit atherosclerosis model (Table 1); format: in vivo; parameters: Serum triglyceride: unit not given here; details: for Serum triglyceride / Serum total cholesterin / Aorta total cholesterin / Aorta total lipid / Serum total lipid: rabbit, cholesterin-fed; for Serum triglyceride: Control-1 75, Control-2 103; for Serum total cholesterin: Control-1 326, Control-2 1504; for Aorta total cholesterin: Control-1 331, Control-2 921; for Aorta total lipid: Control-1 1928, Control-2 2575; for serum lipid, aorta lipid and cholesterin lipid level: in words, from the data of Table 1 (rabbit, 50 mg/kg)
normolyphaemic rats = assay: normolyphaemic rats, serum lipids (Table 2); format: in vivo, rat; parameters: Serum triglyceride: unit not given here; details: for Serum cholesterine: Control 103; for Serum triglyceride: Control 185.1
[2] = dose 50 mg/kg, Control-1 (normal feed) 658, Control-2 (cholesterin) 2374

Row | Compound | Serum triglyceride ([1]; dose 50 mg/kg) | Serum total cholesterin ([1]; dose 50 mg/kg) | Aorta total cholesterin ([1]; dose 50 mg/kg) | Aorta total lipid ([1]; dose 50 mg/kg) | Serum total lipid [1, 2] | Serum cholesterine (normolyphaemic rats; 50 mg/kg p.o.) | Serum triglyceride (normolyphaemic rats; 50 mg/kg p.o.) | also measured
1 | 6-methyl-9-chloro-phenyl)-methylene-4-oxo-6,7,8,9-tetrahydro-4H-pyrido(1,2a)pyrimidine-3-carboxylic acid ethylester | 190 | 1531 | 365 | 2461 | 2547 | – | – | –
2 | CCOC(=O)c1cnc2n(c1=O)C(C)CCC2=Cc1cccn1C (centres unmarked) [A, 6-methyl-9-(N-methyl-2-pyrrolyl)-methylene-4-oxo-6,7,8,9-tetrahydro-4H-pyrido(1,2a) pyrimidine-3-carboxylic acid ethylester] | 121 | 1419 | 958 | 2496 | 2309 | – | – | –
3 | CCOC(=O)C=C1CCC(C)n2c1ncc(C(=O)OCC)c2=O (centres unmarked) [C, 6-methyl-9-(ethoxycarbonyl-methylene)-4-oxo-6,7,8,9-tetrahydro-4H-pyrido(1,2a)-purimidine-3-carboxylic acid ethylester] | 119 | 1176 | 353 | 1878 | 1903 | – | – | serum lipid, aorta lipid and cholesterin lipid level [1]: significant decrease
4 | CCOC(=O)C(C)(C)Oc1ccc(Cl)cc1 [Chlofibrate, reference compound] | – | – | – | – | – | – | – | Serum cholesterine (normolyphaemic rats; 250 mg/kg p.o.): 63.9; Serum triglyceride (normolyphaemic rats; 250 mg/kg p.o.): 144.1; Serum triglyceride ([1]; dose 250 mg/kg): 115; Serum total cholesterin ([1]; dose 250 mg/kg): 1137; Aorta total cholesterin ([1]; dose 250 mg/kg): 787; Serum total lipid ([1]; dose 250 mg/kg, Control-1 658, Control-2 2374): 1938; Aorta total lipid ([1]; dose 250 mg/kg): 2227; weight of the liver ([1]; test animals): increase the weight of the liver
5 | CCOC(=O)c1cnc2n(c1=O)C(C)CCC2CC(=O)O (centres unmarked) [D, 6-methyl-3-ethoxycarbonyl-4-oxo-6,7,8,9-tetrahydro-4H-pyrido(1,2a)pyrimidine-9-yl-acetic acid] | 97 | 972 | 186 | 1355 | 1638 | – | – | serum lipid, aorta lipid and cholesterin lipid level [1]: significant decrease
6 | CCOC(=O)C=C1CCCn2c1ncc(C(=O)OCC)c2=O [E, 9-(ethoxycarbonyl-methylene)-4-oxo-6,7,8,9-tetrahydro-4H-pyrido(1,2a)pyrimidine-3-carboxylic acid ethylester] | – | – | – | – | – | 86.5 | 127.9 | –
7 | CCOC(=O)C1=CNC2C(CC(=O)O)CCCN2C1=O (centres unmarked) [F, 9-(carboxyl-methyl)-4-oxo-1,6,7,8,9,9a-hexahydro-4H-pyrido(1,2a)pyrimidine-3-carboxylic acid ethylester] | – | – | – | – | – | 88.0 | 155.5 | –
8 | CCOC(=O)c1cnc2n(c1=O)CCCC2CC(=O)O (centres unmarked) [G, 9-(carboxyl-methyl)-4-oxo-6,7,8,9-tetrahydro-4H-pyrido-(1,2a)pyrimidine-3-carboxylic acid ethylester] | – | – | – | – | – | 88.0 | 127.5 | –
9 | COC(=O)C=C1CCC(C)n2c1ncc(C(=O)OC)c2=O (centres unmarked) [H, 9-(methoxycarbonyl-methylene)-6-methyl-4-oxo-6,7,8,9-tetrahydro-4H-pyrido(1,2a)pyrimidine-3-carboxylic acid methylester] | – | – | – | – | – | 90.2 | 107.9 | –
